# Laboratory results as given in patent publication US20230357447A1, “TUMOR ACTIVATED MULTISPECIFIC ANTIBODIES FOR TARGETING CD28 AND PD-L1 AND METHODS OF USE THEREOF” (Janux Therapeutics, Inc., priority 2022, published 2023).
# System: anti-CD28 scFv
# Test: Phage binding ELISA (panning) of clonal phage on anti-CD28 scFv, with or without CD28 soluble protein
# Conditions: for Backgroud signal: Phage binding ELISA, background wells; for Backgroud signal / Phage binding ELISA Backgroud signal: clonal phage supernatant; for Phage binding ELISA CD28 scFv signal in presence of CD28: clonal phage supernatant on captured anti-CD28 scFv pre-incubated with CD28 soluble protein; for Phage binding ELISA CD28 scFv signal: clonal phage supernatant on captured biotinylated anti-CD28 scFv, blocking buffer alone
# In short: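 Wells pre-incubated with blocking buffer plus CD28 soluble protein or blocking buffer alone, then crude clonal phage supernatants added without washing for a short incubation. After washing, bound phage detected with HRP-conjugated anti-M13 antibody.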
# [1] = background (no anti-CD28 scFv signal)
substance,measurement,setting,value
Phage-114 (MDWCPRYLWFECFA),Backgroud signal,,0.066
Phage-47 (MAWCPVYLWHECFN),Phage binding ELISA CD28 scFv signal in presence of CD28,,0.351
same,Phage binding ELISA CD28 scFv signal,,2.273
same,Phage binding ELISA Backgroud signal,background signal,0.094
Phage-190 (MDWCPRDMWAECFF),Phage binding ELISA Backgroud signal,background signal,0.099
Phage-175 (MDWCPAYLWAECFS),Phage binding ELISA Backgroud signal,background signal,0.082
Phage-220 (FDFCPTTMWTYCQH),Phage binding ELISA Backgroud signal,background signal,0.084
Phage-370 (MTWCPAYLWHECFN),Phage binding ELISA Backgroud signal,background signal,0.086
Phage-68 (MDWCPMYMWYECFA),Phage binding ELISA CD28 scFv signal in presence of CD28,,0.358
same,Phage binding ELISA CD28 scFv signal,,2.479
same,Phage binding ELISA Backgroud signal,background signal,0.080
Phage-209 (IDWCPQDMWFYCFN),Phage binding ELISA Backgroud signal,background signal,0.069
Phage-193 (MDWCPMDMWVNCFN),Phage binding ELISA Backgroud signal,background signal,0.059
Phage-136 (MHWCPIYLWDECFN),Backgroud signal,,0.071
Phage-299 (MDWCPIYLWAECFN),Phage binding ELISA Backgroud signal,background signal,0.078
Phage-412 (QHWCPRDMWNDCYA),Phage binding ELISA Backgroud signal,[1],0.066
Phage-379 (MDWCPRNLWAECFS),Phage binding ELISA Backgroud signal,background signal,0.061
Phage-306 (MDWCPRHLWNECFA),Phage binding ELISA Backgroud signal,background signal,0.068
Phage-423 (INLCPTPMWNRCWL),Phage binding ELISA Backgroud signal,[1],0.119
Phage-148 (MHWCPEYLWNECFA),Backgroud signal,,0.074
Phage-218 (TFGCPTTMWNRCFA),Phage binding ELISA Backgroud signal,background signal,0.117
Phage-409 (LHWCPITMWTYCYY),Phage binding ELISA Backgroud signal,[1],0.229
Phage-122 (MDWCPRDLWDQCYA),Backgroud signal,,0.059
Phage-431 (MAWCPADQWHECFN),Phage binding ELISA Backgroud signal,[1],0.076
Phage-310 (MDWCPRDLWDECFN),Phage binding ELISA Backgroud signal,background signal,0.066
Phage-425 (MDLCPTAMWNRCFY),Phage binding ELISA Backgroud signal,[1],0.063
Phage-285 (MDWCPRDLWAMCFA),Phage binding ELISA Backgroud signal,background signal,0.071
Phage-352 (MDWCPIHLWYECFN),Phage binding ELISA Backgroud signal,background signal,0.080
Phage-121 (MDWCPRDLWHVCFF),Backgroud signal,,0.068
Phage-413 (MDWCPSDMWSNCFN),Phage binding ELISA Backgroud signal,[1],0.070
Phage-319 (MSWCPRDLWHLCFF),Phage binding ELISA Backgroud signal,background signal,0.077
Phage-223 (MDWCPRDRWVDCFF),Phage binding ELISA Backgroud signal,background signal,0.066
